Each structure is given as a SMILES string. pEC50: −log10 of the molar value. Starred links: 1 amine or outer side, 2 acyl side, 3 side chain; linkers in the order of their positions; H or OH if unused. Non-standard residues stand in square brackets, D forms with d. Residues, ends and D or L forms follow the SMILES beside them. Groups on a side chain read outwards from the residue. *: point of attachment. X1 = COc1cc2c(cc1-c1cccc(N*)c1)-c1c(c(C(=O)N3CCOCC3(C)C)nn1-c1cc(Cl)cc(Cl)c1)CO2; DOTA = O=C(O)CN1CCN(CC(=O)O)CCN(CC(=O)*)CCN(CC(=O)O)CC1; Suc = O=C(CCC(=O)[*:2])[*:1]; Sar = CNCC(=O)O

The first assay concerns the target T1, human follicle-stimulating hormone receptor (FSHR) (Homo sapiens, UniProt P23945).
T1 construct: host or cells: CHO-K1
T1 sequence (P23945 18-695): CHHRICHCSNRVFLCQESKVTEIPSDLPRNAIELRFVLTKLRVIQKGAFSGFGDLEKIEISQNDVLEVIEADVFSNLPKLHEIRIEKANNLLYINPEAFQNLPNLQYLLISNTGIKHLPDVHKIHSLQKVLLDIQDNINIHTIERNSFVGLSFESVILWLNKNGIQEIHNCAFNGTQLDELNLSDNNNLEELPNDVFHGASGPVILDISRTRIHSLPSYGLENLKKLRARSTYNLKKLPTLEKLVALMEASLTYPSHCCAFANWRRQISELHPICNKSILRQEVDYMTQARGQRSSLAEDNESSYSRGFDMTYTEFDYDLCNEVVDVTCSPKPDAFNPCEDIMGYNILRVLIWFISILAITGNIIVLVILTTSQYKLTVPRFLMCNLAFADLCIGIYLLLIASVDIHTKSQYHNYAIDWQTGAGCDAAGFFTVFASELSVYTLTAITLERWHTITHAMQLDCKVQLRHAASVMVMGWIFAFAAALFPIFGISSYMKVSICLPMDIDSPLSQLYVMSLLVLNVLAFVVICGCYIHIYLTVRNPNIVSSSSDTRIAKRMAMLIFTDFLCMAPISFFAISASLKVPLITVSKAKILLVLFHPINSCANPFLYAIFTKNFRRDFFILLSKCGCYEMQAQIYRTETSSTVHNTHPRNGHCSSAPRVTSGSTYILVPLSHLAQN
Nature of the assay: Measurement of agonist cAMP production by activation of human FSHR. The class given is cell-based. The note with it: CHO-K1 human FSHR cells, 30 minutes at 37° C., HTRF cAMP kit; read-out: hFSHR Agonist cAMP EC50. Put shortly:
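cAMP output was measured by HTRF after 30 min at 37 °C agonist exposure (0–10,000 nM final) in stably FSHR-transfected CHO-K1 cells. Lysate cAMP was read off a standard curve and fitted to obtain half-maximal EC50.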
For `COc1cc2c(cc1-c1cccc(NC(=O)CCC(=O)NCCCC[C@@H](NC(=O)[C@@H](CCC(=O)O)NC(=O)[C@@H](CCC(=O)O)NC(=O)[C@@H](CCC(=O)O)NC(=O)[C@@H](CCC(=O)O)NC(=O)[C@@H](C)NC(=O)CN3CCN(CC(=O)O)CCN(CC(=O)O)CCN(CC(=O)O)CC3)C(=O)N[C@H](C)C(N)=O)c1)-c1c(c(C(=O)N3CCOCC3(C)C)nn1-c1cc(Cl)cc(Cl)c1)CO2` [Compound 90, 2,2′,2″-(10-((4R,7R,10R,13R,16R,19R)-19-(((R)-1-amino-1-oxopropan-2yl)carbamoyl)-7,10,13,16-tetrakis(2-carboxyethyl)-28-((3-(1-(3,5-dichlorophenyl)-3-(3,3-dimethylmorpholine-4-carbonyl)-7-methoxy-1,4-dihydrochromeno|4,3-clpyrazol-8-yl)phenyl)amino)-4-methyl-2,5,8,11,14,17,25,28-octaoxo-3,6,9,12,15,18,24-heptaazaoctacosyl)-1,4,7,10-tetraazacyclododecane-1,4,7-triyl)triacetic acid] ({DOTA}-[dA][dE][dE][dE][dE][dK]([Suc-X1])[dA]-NH2), the pEC50 (as a rule, −log10 of the EC50, conventionally taken in molar units) was 7.00 to 8.00. On the same count and under the same terms, the same measure for `COc1cc2c(cc1-c1cccc(NC(=O)CCC(=O)NCCCC[C@@H](NC(=O)[C@@H](C)NC(=O)[C@@H](C)NC(=O)[C@@H](CC(N)=O)NC(=O)[C@@H](CC(=O)O)NC(=O)[C@@H](CCCNC(=N)N)NC(=O)[C@@H](C)NC(=O)CN3CCN(CC(=O)O)CCN(CC(=O)O)CCN(CC(=O)O)CC3)C(N)=O)c1)-c1c(c(C(=O)N3CCOCC3(C)C)nn1-c1cc(Cl)cc(Cl)c1)CO2` [Compound 91] ({DOTA}-[dA][dR][dD][dN][dA][dA][dK]([Suc-X1])-NH2): 7.00 to 8.00; for `COc1cc2c(cc1-c1cccc(NC(=O)CCC(=O)N[C@H](C)C(=O)N[C@H](CCC(=O)O)C(=O)N[C@H](CCC(=O)O)C(=O)N[C@H](CCC(=O)O)C(=O)N[C@H](CCC(=O)O)C(=O)N[C@H](CCCCNC(=O)CN3CCN(CC(=O)O)CCN(CC(=O)O)CCN(CC(=O)O)CC3)C(=O)N[C@H](C)C(N)=O)c1)-c1c(c(C(=O)N3CCOCC3(C)C)nn1-c1cc(Cl)cc(Cl)c1)CO2` [Compound 92, 2,2′,2″-(10-((8R,11R,14R,17R,20R,23R)-8-(((R)-1-amino-1-oxopropan-2yl)carbamoyl)-11,14,17,20-tetrakis(2-carboxyethyl)-28-((3-(1-(3,5-dichlorophenyl)-3-(3,3-dimethylmorpholine-4-carbonyl)-7-methoxy-1,4-dihydrochromeno[4,3-c]pyrazol-8-yl)phenyl)amino)-23-methyl-2,10,13,16,19,22,25,28-octaoxo-3,9,12,15,18,21,24-heptaazaoctacosyl)-1,4,7,10-tetraazacyclododecane-1,4,7-triyl)triacetic acid] ({X1-Suc}-[dA][dE][dE][dE][dE][dK](DOTA)[dA]-NH2): 7.00 to 8.00. In the case of `COc1cc2c(cc1-c1cncc(NC(=O)CCNC(=O)[C@@H](CC(=O)O)NC(=O)[C@@H](CC(=O)O)NC(=O)CC[C@@H](NC(=O)CN3CCN(CC(=O)O)CCN(CC(=O)O)CCN(CC(=O)O)CC3)C(=O)O)c1)-c1c(c(C(=O)N3CCOCC3(C)C)nn1-c1cc(Cl)cc(Cl)c1)CO2` [Compound 93], the negative-log EC50 (pEC50) was 7.00 to 8.00.

In the case of `COc1cc2c(cc1-c1cncc(NC(=O)CCNC(=O)[C@@H](CC(=O)O)NC(=O)[C@@H](CC(=O)O)NC(=O)CN3CCN(CC(=O)O)CCN(CC(=O)O)CCN(CC(=O)O)CC3)c1)-c1c(c(C(=O)N3CCOCC3(C)C)nn1-c1cc(Cl)cc(Cl)c1)CO2` [Compound 94], the pEC50 was 7.00 to 8.00. On the same count and under the same terms, in the case of `COc1cc2c(cc1-c1cccc(NC(=O)CCC(=O)NCCCC[C@@H](NC(=O)[C@@H](CO)NC(=O)[C@@H](CC(N)=O)NC(=O)[C@@H](C)NC(=O)CN3CCN(CC(=O)O)CCN(CC(=O)O)CCN(CC(=O)O)CC3)C(=O)N[C@H](CC(N)=O)C(=O)N[C@H](CO)C(=O)N[C@H](C)C(N)=O)c1)-c1c(c(C(=O)N3CCOCC3(C)C)nn1-c1cc(Cl)cc(Cl)c1)CO2` [Compound 97] ({DOTA}-[dA][dN][dS][dK]([Suc-X1])[dN][dS][dA]-NH2) it was 7.00 to 8.00; in that of `COc1cc2c(cc1-c1cccc(NC(=O)CCC(=O)N(C)CC(=O)N(C)CC(=O)N(C)CC(=O)N[C@H](CCCCNC(=O)CN3CCN(CC(=O)O)CCN(CC(=O)O)CCN(CC(=O)O)CC3)C(=O)N[C@H](CCC(=O)O)C(=O)N[C@H](Cc3ccc(O)cc3)C(=O)N[C@H](CCCCN)C(=O)N[C@H](CCC(=O)O)C(=O)N[C@H](CCC(=O)O)C(=O)N[C@H](CCC(=O)O)C(=O)N[C@H](CCC(=O)O)C(=O)N[C@H](CCCCN)C(N)=O)c1)-c1c(c(C(=O)N3CCOCC3(C)C)nn1-c1cc(Cl)cc(Cl)c1)CO2` [Compound 98] ({X1-Suc}-[Sar][Sar][Sar][dK](DOTA)[dE][dY][dK][dE][dE][dE][dE][dK]-NH2), 7.00 to 8.00. Still for that read-out and setting: in the case of `COc1cc2c(cc1-c1cncc(NC(=O)CCNC(=O)[C@@H](CC(=O)O)NC(=O)[C@@H](CC(=O)O)NC(=O)[C@H](N)CCCNC(=O)CN3CCN(CC(=O)O)CCN(CC(=O)O)CCN(CC(=O)O)CC3)c1)-c1c(c(C(=O)N3CCOCC3(C)C)nn1-c1cc(Cl)cc(Cl)c1)CO2` [Compound 99, 2,2′,2″-(10-((7R,10R,13R)-7-amino-10,13-bis(carboxymethyl)-18-((5-(1-(3,5dichlorophenyl)-3-(3,3-dimethylmorpholine-4-carbonyl)-7-methoxy-1,4-dihydrochromeno|4,3-c|pyrazol-8-yl)pyridin-3-yl)amino)-2,8,11,14,18-pentaoxo-3,9,12,15-tetraazaoctadecyl)-1,4,7,10-tetraazacyclododecane-1,4,7-triyl)triacetic acid] it was 7.00 to 8.00.

The assay is the same for the next values; noted with them: hFSHR Agonist cAMP EC50, CHO-K1 human FSHR cells, 30 minutes at 37° C., HTRF cAMP kit.
Regarding `COc1cc2c(cc1-c1cccc(NC(=O)CCC(=O)NCCCC[C@@H](NC(=O)[C@@H](C)NC(=O)[C@@H](CCC(=O)O)NC(=O)[C@@H](C)NC(=O)[C@@H](CCC(=O)O)NC(=O)[C@@H](C)NC(=O)CN3CCN(CC(=O)O)CCN(CC(=O)O)CCN(CC(=O)O)CC3)C(=O)N[C@H](C)C(N)=O)c1)-c1c(c(C(=O)N3CCOCC3(C)C)nn1-c1cc(Cl)cc(Cl)c1)CO2` [Compound 95], the pEC50 is 7.00 to 8.00.

Source of the values: patent US20260137819A1 (Radionetics Oncology, Inc., priority 2022, published 2026).
